What was measured:
GLUT1 [1] = target: T1, GLUT1 (Homo sapiens, UniProt P11166); assay: rapafucin 3D microarray screen with GLUT1-containing cell lysate; format: binding; details: signal-to-background ratio, 3D surface, lysate of GLUT1-overexpressing HEK293T; hit if SBR > 3
T1 construct: The full-length human SLC2A1, SLC2A3, and SLC2A4 genes were PCR amplified and inserted into pLenti6M vector 2; expressed in transfected cells
T1 sequence (P11166 1-492): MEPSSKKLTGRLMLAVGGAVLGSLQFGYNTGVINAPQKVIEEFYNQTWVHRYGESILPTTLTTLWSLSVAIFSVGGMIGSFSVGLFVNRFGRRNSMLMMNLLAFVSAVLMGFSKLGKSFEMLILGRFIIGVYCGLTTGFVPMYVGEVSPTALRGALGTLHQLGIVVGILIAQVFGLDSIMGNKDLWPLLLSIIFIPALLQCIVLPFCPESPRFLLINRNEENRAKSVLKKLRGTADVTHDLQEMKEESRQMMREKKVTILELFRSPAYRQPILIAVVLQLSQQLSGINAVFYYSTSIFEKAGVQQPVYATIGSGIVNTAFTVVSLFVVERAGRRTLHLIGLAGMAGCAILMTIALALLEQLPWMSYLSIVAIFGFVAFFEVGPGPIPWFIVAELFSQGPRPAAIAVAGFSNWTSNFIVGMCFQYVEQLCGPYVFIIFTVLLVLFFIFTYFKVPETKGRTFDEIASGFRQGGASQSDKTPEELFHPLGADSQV
Description: (§1) Once stock solutions of the rapafucin library were arrayed on the 2D or 3D surface and most of solvent carrier was evaporated, the crosslinking reaction was initiated by irradiating the surfaces with 365-nm wavelength UV light. Kawatani and Osada, Medchemcomm 2014, 5, 277-287. […] To screen for GLUT1-interacting rapafucins, GLUT1 was stably overexpressed in HEK293T cells and generated cell lysates containing detergent-solubilized recombinant GLUT1 (FIG. 10). The GLUT1-containing cell lysate was then incubated on both 2D and 3D rapafucin microarrays. After washing the slides to remove unbound proteins, the bound GLUT1 protein was detected with anti-GLUT1 antibodies, followed by visualization with Cy5-labeled secondary antibodies using a microarray scanner. Rapafucins were scored as positive hits when the corresponding SBR was greater than 3. Based on this criterion, a total of 17 rapafucin hits and one positive control BAY-876, a specific GLUT1 inhibitor, Siebeneicher et al., ChemMedChem 2016, 11, 2261-2271, were identified on the 3D rapafucin microarray. In contrast, only one hit (WL13-F11, also among the 17 hits identified from the 3D rapafucin microarray) was identified on the 2D rapafucin microarray (Table 1, FIG. 11).
The amine substrates (Arrayit, SMM) were immerged in a mixture of 2-bromoisobutyryl bromide (BIBB, 0.1 mM, as initiator) and propionyl bromide (10 mM, as horizontal spacer) with triethylamine (15 mM) in DCM for 4 hours. A degassed polymerization reaction mixture, containing copper (II) chloride dihydrate (CuCl2, 4 mmol), 2,2′-bipyridine (2 mmol), 75 mmol monomers mixture of 2-(dimethylamino)ethyl methacrylate (DMAEMA) and poly(ethylene glycol) methacrylate (PEGMA Mn 360) in 500 mL Milli-Q/MeOH, was mixed with freshly made ascorbic acid (4 mmol). The mixture was applied to 50 slides for 6 hours under the argon atmosphere for the surface-initiated polymerization. A gradient ratio of PEGMA and DMAEMA was set, including 10:0, 8:2, 5:5, 2:8 and 0:10 for an optimization purpose. The terminals of the brushes were further functionalized by N,N′-disuccinimidyl carbonate (DSC, 10 mM) and 4-dimethylaminopyridine (DMAP,10 mM) in DMF overnight to form succinimidyl carbonate intermediate, and, successively, diazirine linker 1 (10 mM) and N,Ndiisopropylethylamine (DIPEA, 50 mM) in DMF for 2 hours to couple the photoaffinity linker in dark at room temperature. At the end, the substrates were immerged in a 50 mM ethanolamine in DMF to block the residual carboxylic moiety. The slides were thoroughly washed by DMF, EtOH and DCM and dried in a fuming cupboard and ready for spotting.
10 mM of rapafucins in DMSO from the library were spotted onto the slides with a high-precision microarrayer (Nanoprint, Arrayit, CA) for a desired pattern in dark, which was loaded with 16 100-μm diameter micro-spotting pins. The pin heads were thoroughly washed and sonicated in ethanol and dried for 4 times under a compassed air between each sample loading. After overnight evaporation, the slides were exposed to 365-nm wavelength UV irradiation for 4 J/cm^2 by CL-1000L UV crosslinker (UVP, CA) for rapafucins covalent immobilization. The slides were ultrasonic cleaned successively in DCM, MeOH and Milli-Q water and stored in a −20° C. freezer.
(§2) In the optimization experiments, the slides were incubated with 50 nM purified recombinant FKBP12 for 1 hour, while in the GLUT1 screening, 10 mg/mL of cell lysate containing DDM-solubilized GLUT1 from GLUT1 overexpressed HEK293T was incubated for 1 hour. Successively, primary antibody and CY5 labeled secondary antibody were added for 1 hour. The chips were washed in buffer A for 5 mins 3 times after the sample and antibodies incubation. After centrifugation, the dried chips were scanned by a microarray scanner (Genepix, US) at 635-nm wavelength. The final result was analyzed by GenePix software.

GLUT1 [2] = target: T1, GLUT1; assay: rapafucin 2D microarray screen with GLUT1-containing cell lysate; format: binding; details: signal-to-background ratio, 2D surface, same lysate and conditions
Description: as §1, §2

DLD1 WT = assay: [3H]-2DG uptake in DLD1 WT cells; format: cell-based
Protocol: (§3) The inhibitory activity of compounds on glucose transport was analyzed by measuring the cell uptake of [3H]-2DG as previously described. Ulanovskaya et al., Chem. Biol. 2011, 18, 222-230. Briefly, cells were washed twice and incubated in low-glucose medium for 10 min. Cells were added drugs and incubated for another 10 min before adding [3H]-2DG. After 10 min incubation with [3H]-2DG, cells were washed twice and lysed with 0.2 N NaOH plus 0.2% SDS. The cell lysate was transferred to a new tube containing 1 mL of optiphase supermix. Glucose uptake was quantified with a scintillation counter.

DLD1 GLUT1 KO = assay: [3H]-2DG uptake in DLD1 GLUT1 knockout cells; format: cell-based; details: for inhibitory activity in GLUT1 knock out cells: DLD-1 GLUT1 knock out versus wild type
Protocol: as §3

A549 cells = assay: [3H]-2DG uptake assay in A549 cells; format: cell-based, human; details: 10 min incubation with compound, mean ± s.d., n = 3
Protocol: To determine which of the 17 rapafucin hits inhibited the transporter activity of GLUT1, an orthogonal glucose uptake assay using 2-deoxy-D-[3H] glucose ([3H]-2DG), a nonhydrolyzable, radioactive glucose analog, was employed. Each hit was separately incubated with A549 cells for 10 min before the amount of [3H]-2DG taken up by the cells was measured using scintillation counting. […] The effect of JW11-D2 on uptake of [3H]-2DG in human red blood cells that exclusively express GLUT1 was then determined. Helgerson and Carruthers, J. Biol. Chem. 1987, 262, 5464-5475. […] To further improve the potency of JW11-D2, a structure-activity relationship (SAR) study was performed by synthesizing 21 new analogs of JW11-D2 using different amino acid building blocks.
as §3

GLUT1 [3] = target: T1, GLUT1; assay: biotin-RgA pull-down and biotin probe competition binding assay, GLUT1; details: lysate of HEK293T overexpressing GLUT1, Western blot
Protocol: Next, the binding affinity of RgA for GLUT1 was determined using a RgA biotin pull-down assay. A biotin-RgA conjugate was synthesized by tethering the biotin moiety through carbon:carbon double bond in the FKBP-binding domain of RgA (FIG. 13). […] Using the biotin-RgA conjugate, a pulldown experiment with cell lysate containing detergent-solubilized GLUT1 protein prepared from HEK293T cells overexpressing GLUT1 was performed, followed by Western blot analysis with a GLUT1-specific antibody.
The estimation of Kd value for RgA was determined with the biotin probe competition binding assay. […] After western blot, band intensities were quantified by densitometry analysis using Image J software. The assay was repeated three times. GraphPad Prism (v4.03) software was used to determine apparent Kd value for RgA using a nonlinear regression.

GLUT3 = GLUT3 (Homo sapiens, UniProt P11169); assay: biotin-RgA pull-down assay, GLUT3; details: lysate of HEK293T overexpressing GLUT3, Western blot
Protocol: (§4) It was further determined whether RgA is specific for GLUT1 using a pair of isogenic cell lines.
(§5) GLUT1 or other isoforms overexpression HEK293T cells were washed once in buffer A (10 mM Tris-HCl, 150 mM KCl, 5 mM MgCl2, 1 mM EGTA, pH 7.4). To extract GLUT1 or isoforms protein, cells were mixed in buffer C (10 mM Tris-HCl, 150 mM KCl, 5 mM MgCl2, 1% DDM, 5% glycerol, 1 mM EGTA, protease inhibitor, pH 7.4) and incubated on ice for 1 h with frequent mixing. The supernatant was collected by centrifugation at 17,000 g for 10 min at 4° C., and then diluted four-fold in buffer A plus 5% glycerol to reduce the concentration of DDM. The diluted supernatant was quantified by protein assay kit and pre-incubated with streptavidin agarose beads at 4° C. for 30 min to remove the endogenous streptavidin-binding proteins. The supernatant was collected by centrifugation at 2,000 rpm for 1 min at 4° C., and diluted to 10 mg/mL for pull-down experiment. For a typical biotin pull- down reaction, 300 μL of supernatant was pretreated with competitor or equal volume of DMSO (as noted hereinabove) for 30 min, before the addition of RgA biotin probe or DMSO (as noted hereinabove). After incubation at 4° C. for 1 h with frequent mixing, 30 μL of streptavidin agarose beads in buffer A was added, and incubation was continued for 2 h. […]

GLUT4 = GLUT4 (Homo sapiens, UniProt P14672); assay: biotin-RgA pull-down assay, GLUT4; details: lysate of HEK293T overexpressing GLUT4, Western blot
Protocol: as §4, §5

[4] = test system: glutathione S-transferases; details: Yamada and Kaplowitz 1980; cited from earlier work

Chain of GLUT4 (P14672 whole entry): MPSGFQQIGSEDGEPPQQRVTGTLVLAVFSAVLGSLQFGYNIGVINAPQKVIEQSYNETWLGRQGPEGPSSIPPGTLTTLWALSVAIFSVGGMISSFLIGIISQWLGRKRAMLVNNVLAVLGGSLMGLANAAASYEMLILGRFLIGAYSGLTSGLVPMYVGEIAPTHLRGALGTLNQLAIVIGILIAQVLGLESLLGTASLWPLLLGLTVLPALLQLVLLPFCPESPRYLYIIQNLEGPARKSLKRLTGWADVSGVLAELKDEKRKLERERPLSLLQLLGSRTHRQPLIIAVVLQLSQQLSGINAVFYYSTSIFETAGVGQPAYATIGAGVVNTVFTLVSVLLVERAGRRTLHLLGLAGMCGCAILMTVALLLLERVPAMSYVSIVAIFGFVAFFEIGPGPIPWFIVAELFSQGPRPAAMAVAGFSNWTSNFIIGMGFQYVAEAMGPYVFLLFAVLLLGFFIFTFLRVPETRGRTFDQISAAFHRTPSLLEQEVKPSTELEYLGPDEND
Chain of GLUT3 (P11169 whole entry): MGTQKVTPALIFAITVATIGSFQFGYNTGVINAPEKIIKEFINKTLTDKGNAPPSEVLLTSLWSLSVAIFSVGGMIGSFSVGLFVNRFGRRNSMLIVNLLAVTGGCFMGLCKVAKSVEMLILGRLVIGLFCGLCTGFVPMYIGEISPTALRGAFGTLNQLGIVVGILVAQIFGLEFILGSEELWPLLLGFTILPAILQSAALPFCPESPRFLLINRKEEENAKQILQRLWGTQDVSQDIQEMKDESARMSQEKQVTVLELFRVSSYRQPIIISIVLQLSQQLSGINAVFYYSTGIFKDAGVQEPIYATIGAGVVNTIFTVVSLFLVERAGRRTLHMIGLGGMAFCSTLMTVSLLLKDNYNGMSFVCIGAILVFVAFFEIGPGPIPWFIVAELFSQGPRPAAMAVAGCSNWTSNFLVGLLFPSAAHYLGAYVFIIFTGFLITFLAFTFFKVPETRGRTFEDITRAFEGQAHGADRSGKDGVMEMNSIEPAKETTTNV

3D SBR (GLUT1 [1]) | 2D SBR (GLUT1 [2]) | IC50 (A549 cells) [nM] | SMILES | further results
3.2 ± 0.74 | <3.0 |  | Cc1c(NC(=O)c2cc(C(N)=O)nc3cc(F)ccc23)c(C(F)(F)F)nn1Cc1ccc(C#N)cc1 [BAY-876] | EC50 (DLD1 WT; Homo sapiens, DLD-1, DLD1 wild type): 8 ± 1.1 nM; inhibitory activity in GLUT1 knock out cells (DLD1 GLUT1 KO): lost its inhibitory activity; EC50 (DLD1 GLUT1 KO; Homo sapiens, DLD-1, DLD1 GLUT1 knockout): > 1000 nM
 |  |  | C=C1[C@@H](C)[C@H]2[C@H](Cc3ccccc3)NC(=O)[C@]23OC(=O)/C=C/[C@H](O)CCC[C@@H](C)C/C=C/[C@H]3[C@@H]1O [Cytochalasin B, cytochalasin B] | EC50 (DLD1 WT; DLD1 wild type): 545 ± 40.5 nM; EC50 (DLD1 GLUT1 KO; DLD1 GLUT1 knockout): 390 ± 32.7 nM; inhibitory activity in GLUT1 knock out cells (DLD1 GLUT1 KO): maintained its inhibitory activity
6.4 ± 1.8 | <3.0 | > 3000 | COc1ccc(CC[C@H]2OC(=O)[C@@H]3CCCCN3C(=O)C(=O)C(C)(C)COC(=O)C=CCCN(C)C(=O)[C@H](Cc3ccccc3)N(C)C(=O)CCNC(=O)CN(C)C(=O)[C@H](Cc3ccc(O)cc3)NC(=O)COc3cccc2c3)cc1OC [WL05-D8] | 
4.8 ± 0.5 | <3.0 | > 3000 | CCCC[C@H]1C(=O)N2CCC[C@@H]2C(=O)N(C)CCC=CC(=O)OCC(C)(C)C(=O)C(=O)N2CCCC[C@H]2C(=O)O[C@H](CCc2ccc(OC)c(OC)c2)c2cccc(c2)OCC(=O)N(C)CC(=O)N[C@H](Cc2ccc(NC(=O)OC(C)(C)C)cc2)C(=O)N1C [WL11-E7] | 
3.9 ± 0.3 | <3.0 | > 3000 | CCCC[C@H]1C(=O)N2CCC[C@@H]2C(=O)N(C)CCC=CC(=O)OCC(C)(C)C(=O)C(=O)N2CCCC[C@H]2C(=O)O[C@H](CCc2ccc(OC)c(OC)c2)c2cncc(c2)OCC(=O)N(C)CC(=O)N[C@@H](Cc2ccccc2)C(=O)N1C [WL11-G9] | 
8.8 ± 2.0 | <3.0 | > 3000 | COc1ccc(CC[C@H]2OC(=O)[C@@H]3CCCCN3C(=O)C(=O)C(C)(C)COC(=O)C=CCCN(C)C(=O)[C@H]3CCCN3C(=O)[C@H](C(C)C)N(C)C(=O)[C@H](Cc3ccc([N+](=O)[O-])cc3)NC(=O)CN(C)C(=O)COc3cccc2c3)cc1OC [WL12-G5] | 
 |  |  | C=C(CC)C(=O)c1ccc(OCC(=O)O)c(Cl)c1Cl [ethacrynic acid] | proportion of bound ethacrynic acid that was bound covalently [4]: 13.5%

SMILES | 3D SBR (GLUT1 [1]) | 2D SBR (GLUT1 [2]) | IC50 (A549 cells) [nM] | further results
CCC(C)C1C(=O)NCC(=O)N(C)CCC(SCCCSCC(=O)NCCOCCOCCNC(=O)CCCCC2SCC3NC(=O)NC32)CC(=O)OCC(C)(C)C(=O)C(=O)N2CCCCC2C(=O)OC(CCc2ccc(OC)c(OC)c2)c2cccc(c2)NC(=O)CCC(=O)N(C)C(CC(C)C)C(=O)NC(Cc2ccccc2)C(=O)N1C (stereo not shown) [biotin-RgA] |  |  | 211 | pulldown of GLUT1 (GLUT1 [3]): capable of pulling down GLUT1; pulldown of GLUT3 (GLUT3): able to pull down both GLUT3 and GLUT4; pulldown of GLUT4 (GLUT4): able to pull down both GLUT3 and GLUT4

From patent US12649980B2, “Three-dimensional surface for protein and small molecule microarrays” (The Johns Hopkins University, priority 2019, dated 2026)
